One block for each compound: values may come before it.
Columns and labels:
MultiFate-2.3 cells = test: Flow cytometry analysis of MultiFate-2.3 state-switching; format: cell-based, Chinese hamster
Excerpt: FIG. 21A-FIG. 21C depict non-limiting exemplary data related to raw flow cytometry analysis of MultiFate-2.3 state-switching. Each plot represents one of three biological replicates at the indicated time point (cf. FIG. 4B). Initial A-only, B-only and A+B cells (rows) were sorted under the media conditions indicated on the top. Each 2-dimensional flow cytometry plot was divided at mCherry=104 and mCitrine=104 into four quadrants, representing four states. For each plot, the percentage of cells in each of the four states is labeled on the corresponding corner. Timelines above each set of plots represent the time and indicated inducer conditions. Note that since the response elements for 4-OHT or Dox are adjacent to the transcription factor homodimer binding sites (Table 2), the addition of 4-OHT or Dox increases A or B expression up to, but not substantially beyond, the level produced by transcription factor self-activation. […] Additional Dox activation further increased the B expression only by another 1.4 fold (Day 6 versus Day 18).
Finally, it was asked to what extent cells could be deliberately switched from one state to another through transient perturbations. MultiFate-2.3, in which the A and B genes can be independently activated by 4-hydroxy-tamoxifen (4-OHT) and Dox, respectively, was used to address this question. In this cell-line, the response elements for the inducers are adjacent to the homodimer binding sites. Therefore, the addition of inducers increases A or B expression up to, but not substantially beyond, the level produced by self-activation (FIG. 2C and FIG. 21A-FIG. 21C). In the bistable regime, transient induction of either transcription factor switched cells into the corresponding state, where they remained in the absence of further induction (FIG. 8A, FIG. 4B, left, and FIG. 21A). […]
For flow cytometry experiments characterizing state stability (FIG. 3C and FIG. 5B) and state-switching dynamics (FIG. 4A-FIG. 4B), cells from each state were sorted into media containing corresponding inducers. […] The remaining 96% cells were suspended in the flow cytometry buffer and analyzed by flow cytometry. […]
To characterize long-term state stability of MultiFate cells in different media conditions (FIG. 3A-FIG. 5D), 4% of cells were trypsinized and transferred into fresh media with the same condition every three days. The remaining cells were resuspended in flow cytometry buffer and analyzed by a flow cytometer. The resulting two-dimensional (or three-dimensional for MultiFate-3) fluorescence intensity plots were then divided into four quadrants (or eight octants) by an empirical threshold in each of the two (or three) fluorescence channels. […]

[1] = system: reporter containing 18 bp homodimer binding sites driving the expression of Citrine; test: Transient co-transfection Citrine reporter assay of ZF transcription factors; format: cell-based, Chinese hamster
Excerpt: To engineer ZF transcription factors, the ErbB2 ZF DNA-binding domain was fused to a GCN4 homodimerization domain and a VP48 transcriptional activation domain to create the synthetic transcription factor, termed ZF-GCN4-AD (FIG. 2A). A transcription factor (ZF-AD) lacking GCN4 was used as a monomeric control. To assay their transcriptional activity, a reporter was constructed containing 18 bp homodimer binding sites driving the expression of Citrine. Each transcription factor was then co-transfected together with the reporter and an mTagBFP2 co-transfection marker into Chinese hamster ovary K1 (CHO-K1) cells, and analyzed for Citrine expression by flow cytometry 36 hours later (FIG. 2A and FIG. 9A) (See, “Additional Methods” below). […] Arginine-to-alanine mutations were introduced at key positions in the ZF known to weaken DNA binding, which decreased monomeric activity without reducing homodimer activity (FIG. 2A, red square). […]
All tissue culture experiments were performed with Chinese hamster ovary K1 cells (CHO-K1, ATCC). […] Cells were harvested after 36 hours and cell fluorescence was measured by flow cytometry. […] After another 72 hours, cells were harvested and analyzed by flow cytometry. […] The inhibition strength was quantified as the reduction of self-activation cell fractions. […]

[2] = system: self-activation construct in Tet3G-expressing CHO-K1 cells; test: ZF transcription factor self-activation assay (normalized mCitrine+ fraction); format: cell-based, Chinese hamster; conditions: 24 hours Dox, then Dox withdrawn; 72 hours in AP1903 and/or TMP
Excerpt: To validate this capability, a self-activation construct was designed (FIG. 2C), in which a transcription factor with a FKBP dimerization domain is expressed from a promoter containing its own 18 bp homodimer binding sites (Table 2). This construct allowed independent Dox-inducible activation through upstream Tet3G (Takara Bio) binding sites. […] Finally, a destabilized mCitrine was incorporated for dynamic readout of construct expression. This construct was integrated into Tet3G-expressing CHO-K1 cells, generating a stable polyclonal population for further analysis (Table 3) (See, “Additional Methods” below).
For experiments characterizing ZF transcription factor self-activation (FIG. 2C and FIG. 10A), each self-activation construct was stably integrated (Table 2) into polyclonal Tet3G-expressing CHO-K1 cells via PiggyBac (Systems Biosciences) to make a polyclonal cell line (Table 3). […] After another 72 hours, cells were harvested and analyzed by flow cytometry.
Each self-activation construct (Table 2, construct MF63-MF69) was stably integrated into Tet3G-expressing CHO-K1 cells. […] After another 72 hours, cells were harvested and analyzed by flow cytometry. […]

[3] = system: monoclonal self-activation stable lines (42ZFR2AR39AR67A DNA-binding domain); test: Inhibition of self-activation by competitive dimerization; format: cell-based, Chinese hamster; conditions: 100 nM AP1903 and 10 μM TMP
Excerpt: To test this, monoclonal cell lines with the self-activating circuits were selected, and then constructs expressing proteins were stably integrated with a different ZF DNA-binding domain and a matching or mismatching dimerization domain to generate a polyclonal cell population for each perturbation construct (Table 2 and Table 3) (See, “Additional Methods” below). […] Without being bound by any particular theory, this may be through non-specific mechanisms (FIG. 2D and FIG. 10B-FIG. 10C).
All tissue culture experiments were performed with Chinese hamster ovary K1 cells (CHO-K1, ATCC). […] Cells were harvested after 36 hours and cell fluorescence was measured by flow cytometry. […] After another 72 hours, cells were harvested and analyzed by flow cytometry. […] The inhibition strength was quantified as the reduction of self-activation cell fractions.
To determine whether competitive dimerization inhibits self-activation (FIG. 2D and FIG. 10B-FIG. 10C), plasmids (Table 2, construct MF72-MF80) expressing different transcription factor variants and a co-translational mCherry were stably integrated in these two monoclonal lines. After puromycin selection, cells were transferred into media containing 100 nM AP1903+10 μM TMP to permit self-activation, and measured by flow cytometry after another 72 hours. […]

homodimerization domain [4] = biological target: T1, homodimerization domain (Homo sapiens, UniProt P62942, F37V); test: Dissociation constant of homodimerization domains (parameter estimate); format: binding; conditions: media containing 100 nM AP1903; reasoned from reporter activation versus GCN4; read-out: apparent dissociation constant Kd of homodimerization
T1 construct: expressed in transfected cells; host or cells: CHO-K1
T1 sequence (P62942 2-108 F37V): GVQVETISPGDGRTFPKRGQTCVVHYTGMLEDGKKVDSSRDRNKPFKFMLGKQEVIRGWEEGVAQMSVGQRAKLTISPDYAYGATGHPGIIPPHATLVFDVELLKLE
Experimental: Finally, parameters related to protein dimerization were estimated. In some embodiments, the apparent dissociation constant Kd of FKBP homodimerization domain may depend on AP1903 concentrations. […] Based on this observation, it was reasoned that in media containing 100 nM AP1903, the apparent dissociation constant Kd≤10 nM. An estimate of Kd=10 nM=8000 molecules/cell was used in the model. For monomer association rate kon, an intermediate value in the range of diffusion-limited association rates of kon=4×10^5/(M·s)=1.8×10^−3 cell/(protein·hr) was used. These two values together produce a dimer dissociation rate koff=Kd×kon=[…].

homodimerization domain [5] = conditions: cited from earlier work

Compound: NLS-FKBP12F36V-37ZFR2AR11AR39AR67A-VP16-NLS-DHFR [transcription factor B]
increase in B expression by transcription factor self-activation (Day 18 versus Day 0) (MultiFate-2.3 cells): 48 fold

Compound: NLS-FKBP12F36V-BCRZFR39A-VP16-NLS-DHFR [transcription factor A]
increase in A expression by transcription factor self-activation (mCherry median Day 18 / Day 0) (MultiFate-2.3 cells; mean of three replicates): 125 fold

reporter activation by ZF transcription factor ([1]; ErbB2 ZF, VP48 activation domain, wild-type (WT) ZF, flow cytometry 36 hours after transfection): strongly activated the reporter
Compound: ZF-GCN4-AD: ErbB2 ZF DNA-binding domain fused to GCN4 homodimerization domain and VP48 activation domain

Compound: COc1cc(Cc2cnc(N)nc2N)cc(OC)c1OC [TMP, trimethoprim]
self-activation after Dox withdrawal (mCitrine distribution) [2]: promoted self-activation in a dose-dependent manner

Compound: 4-hydroxy-tamoxifen [4-OHT]
additional increase in A expression by inducer compared with self-activation (Day 6 versus Day 18) (MultiFate-2.3 cells; 4-OHT 25 nM): 2.8 fold

Compound: C[C@H]1c2cccc(O)c2C(=O)C2=C(O)[C@]3(O)C(=O)C(C(N)=O)=C(O)[C@@H](N(C)C)[C@@H]3[C@@H](O)[C@@H]21 [Dox]
additional increase in B expression by inducer compared with self-activation (Day 6 versus Day 18) (MultiFate-2.3 cells; Dox 500 ng/ml): 1.4 fold

control of ZF transcription factor dimerization/activation by dimerization ligand ([1]; FKBP12F36V (FKBP) homodimerization domain instead of GCN4, BCRZFR39A): dose-dependent control of dimerization
Compound: CC[C@H](C(=O)N1CCCC[C@H]1C(=O)O[C@H](CCc1ccc(OC)c(OC)c1)c1cccc(OCC(=O)NCCNC(=O)COc2cccc([C@@H](CCc3ccc(OC)c(OC)c3)OC(=O)[C@@H]3CCCCN3C(=O)[C@@H](CC)c3cc(OC)c(OC)c(OC)c3)c2)c1)c1cc(OC)c(OC)c(OC)c1 [AP1903]
self-activation after Dox withdrawal (mCitrine distribution) [2]: bimodal distribution of mCitrine fluorescence

inhibition of self-activation ([3]; FKBP-42ZFR2AR39AR67A-VP48-DHFR self-activation cells): can partially inhibit self-activation
Kd (homodimerization domain [4]): ≤ 10 nM
Compound: FKBP: FKBP12F36V homodimerization domain (SEQ ID NO: 5)

inhibition of self-activation ([3]; 42ZFR2AR39AR67A-GCN4-VP48-DHFR self-activation cells): did not have inhibitory effects
Compound: GCN4: GCN4 homodimerization domain
Kd (homodimerization domain [5]): 10 to 20 nM

From patent US20220177911A1, “SYNTHETIC CIRCUIT FOR CELLULAR MULTISTABILITY” (California Institute of Technology, priority 2020, published 2022)
